≈ marks a conversion by molar mass, not a printed value.
Key:
Format in all cases: functional
Enterococcus faecium = experiment: Antibacterial activity against Enterococcus faecium ATCC 19434 assessed as growth inhibition by broth dilution method
Listeria monocytogenes = experiment: Antibacterial activity against Listeria monocytogenes ATCC […] assessed as growth inhibition by broth dilution method
Staphylococcus aureus = experiment: Antibacterial activity against Staphylococcus aureus ATCC 29213 assessed as growth inhibition by broth dilution method
Enterococcus faecalis = experiment: Antibacterial activity against Enterococcus faecalis ATCC 29212 assessed as growth inhibition by broth dilution method
Acinetobacter baumannii = experiment: Antibacterial activity against Acinetobacter baumannii ATCC 19606 assessed as growth inhibition by broth dilution method
Klebsiella pneumoniae = experiment: Antibacterial activity against Klebsiella pneumoniae ATCC 13883 assessed as growth inhibition by broth dilution method
Campylobacter jejuni = experiment: Antibacterial activity against Campylobacter jejuni NCTC 11168 assessed as growth inhibition by broth dilution method
Salmonella enterica = experiment: Antibacterial activity against Salmonella enterica ATCC 13311 assessed as growth inhibition by broth dilution method
Pseudomonas aeruginosa = experiment: Antibacterial activity against Pseudomonas aeruginosa ATCC 27853 assessed as growth inhibition by broth dilution method
Escherichia coli = experiment: Antibacterial activity against Escherichia coli ATCC 25922 assessed as growth inhibition by broth dilution method

## CC[C@@H](C)CC[C@@H](O)CC(=O)N[C@@H](C(=O)N[C@H](CCN)C(=O)NCC(=O)N[C@H](CO)C(=O)N[C@H](Cc1c[nH]c2ccccc12)C(=O)N[C@@H](CO)C(=O)N[C@@H](CCN)C(=O)N[C@H](CCN)C(=O)N[C@@H](Cc1ccccc1)C(=O)N[C@@H](CCC(=O)O)C(=O)N[C@H](C(=O)N[C@@H](C(=O)N[C@@H](C)C(=O)O)[C@@H](C)CC)C(C)C)C(C)C
Enterococcus faecium
  MIC: > 100 µg/mL
Listeria monocytogenes
  MIC: 100 µg/mL (≈ 64.5 µM)
Staphylococcus aureus
  MIC: > 100 µg/mL
Enterococcus faecalis
  MIC: > 100 µg/mL
Acinetobacter baumannii
  MIC: 12.5 µg/mL (≈ 8.06 µM)
Klebsiella pneumoniae
  MIC: 6.25 µg/mL (≈ 4.03 µM)
Campylobacter jejuni
  MIC: 3.13 µg/mL (≈ 2.02 µM)
Salmonella enterica
  MIC: 6.25 µg/mL (≈ 4.03 µM)
Pseudomonas aeruginosa
  MIC: 50 µg/mL (≈ 32.2 µM)
Escherichia coli
  MIC: 3.13 µg/mL (≈ 2.02 µM)

## CC[C@@H](C)CC[C@H](O)CC(=O)N[C@@H](C(=O)N[C@H](CCN)C(=O)NCC(=O)N[C@H](CO)C(=O)N[C@H](Cc1c[nH]c2ccccc12)C(=O)N[C@@H](CO)C(=O)N[C@@H](CCN)C(=O)N[C@H](CCN)C(=O)N[C@@H](Cc1ccccc1)C(=O)N[C@@H](CCC(=O)O)C(=O)N[C@H](C(=O)N[C@@H](C(=O)N[C@@H](C)C(=O)O)[C@@H](C)CC)C(C)C)C(C)C
Enterococcus faecium
  MIC: > 100 µg/mL
Listeria monocytogenes
  MIC: > 100 µg/mL
Staphylococcus aureus
  MIC: > 100 µg/mL
Enterococcus faecalis
  MIC: > 100 µg/mL
Acinetobacter baumannii
  MIC: 50 µg/mL (≈ 32.2 µM)
Klebsiella pneumoniae
  MIC: 12.5 µg/mL (≈ 8.06 µM)
Campylobacter jejuni
  MIC: 3.13 µg/mL (≈ 2.02 µM)
Salmonella enterica
  MIC: 25 µg/mL (≈ 16.1 µM)
Pseudomonas aeruginosa
  MIC: 100 µg/mL (≈ 64.5 µM)
Escherichia coli
  MIC: 12.5 µg/mL (≈ 8.06 µM)

## CC[C@H](C)[C@@H](NC(=O)[C@@H](NC(=O)[C@H](CCC(=O)O)NC(=O)[C@H](Cc1ccccc1)NC(=O)[C@@H](CCN)NC(=O)[C@H](CCN)NC(=O)[C@H](CO)NC(=O)[C@@H](Cc1c[nH]c2ccccc12)NC(=O)[C@@H](CO)NC(=O)CNC(=O)[C@@H](CCN)NC(=O)[C@H](NC(C)=O)C(C)C)C(C)C)C(=O)N[C@@H](C)C(=O)O
Enterococcus faecium
  MIC: > 100 µg/mL
Listeria monocytogenes
  MIC: > 100 µg/mL
Staphylococcus aureus
  MIC: > 100 µg/mL
Enterococcus faecalis
  MIC: > 100 µg/mL
Acinetobacter baumannii
  MIC: > 100 µg/mL
Klebsiella pneumoniae
  MIC: 50 µg/mL (≈ 34.8 µM)
Campylobacter jejuni
  MIC: 100 µg/mL (≈ 69.6 µM)
Salmonella enterica
  MIC: 100 µg/mL (≈ 69.6 µM)
Pseudomonas aeruginosa
  MIC: > 100 µg/mL
Escherichia coli
  MIC: 50 µg/mL (≈ 34.8 µM)

## CC[C@H](C)[C@@H](NC(=O)[C@@H](NC(=O)[C@H](CCC(=O)O)NC(=O)[C@H](Cc1ccccc1)NC(=O)[C@@H](CCN)NC(=O)[C@H](CCN)NC(=O)[C@H](CO)NC(=O)[C@@H](Cc1c[nH]c2ccccc12)NC(=O)[C@@H](CO)NC(=O)CNC(=O)[C@@H](CCN)NC(=O)[C@H](NC(=O)CC12CC3CC(CC(C3)C1)C2)C(C)C)C(C)C)C(=O)N[C@@H](C)C(=O)O
Enterococcus faecium
  MIC: 50 µg/mL (≈ 31.8 µM)
Listeria monocytogenes
  MIC: 25 µg/mL (≈ 15.9 µM)
Staphylococcus aureus
  MIC: 50 µg/mL (≈ 31.8 µM)
Enterococcus faecalis
  MIC: 50 µg/mL (≈ 31.8 µM)
Acinetobacter baumannii
  MIC: 12.5 µg/mL (≈ 7.96 µM)
Klebsiella pneumoniae
  MIC: 12.5 µg/mL (≈ 7.96 µM)
Campylobacter jejuni
  MIC: 1.56 µg/mL (≈ 0.993 µM)
Salmonella enterica
  MIC: 6.25 µg/mL (≈ 3.98 µM)
Pseudomonas aeruginosa
  MIC: 50 µg/mL (≈ 31.8 µM)
Escherichia coli
  MIC: 6.25 µg/mL (≈ 3.98 µM)

## CC[C@H](C)[C@@H](NC(=O)[C@@H](NC(=O)[C@H](CCC(=O)O)NC(=O)[C@H](Cc1ccccc1)NC(=O)[C@@H](CCN)NC(=O)[C@H](CCN)NC(=O)[C@H](CO)NC(=O)[C@@H](Cc1c[nH]c2ccccc12)NC(=O)[C@@H](CO)NC(=O)CNC(=O)[C@@H](CCN)NC(=O)[C@H](NC(=O)CCc1c2ccccc2cc2ccccc12)C(C)C)C(C)C)C(=O)N[C@@H](C)C(=O)O
Enterococcus faecium
  MIC: > 100 µg/mL
Listeria monocytogenes
  MIC: 50 µg/mL (≈ 30.7 µM)
Staphylococcus aureus
  MIC: > 100 µg/mL
Enterococcus faecalis
  MIC: > 100 µg/mL
Acinetobacter baumannii
  MIC: 25 µg/mL (≈ 15.4 µM)
Klebsiella pneumoniae
  MIC: 12.5 µg/mL (≈ 7.68 µM)
Campylobacter jejuni
  MIC: 1.56 µg/mL (≈ 0.959 µM)
Salmonella enterica
  MIC: 12.5 µg/mL (≈ 7.68 µM)
Pseudomonas aeruginosa
  MIC: > 100 µg/mL
Escherichia coli
  MIC: 6.25 µg/mL (≈ 3.84 µM)

## CCCCCCCCC(=O)N[C@@H](C(=O)N[C@H](CCN)C(=O)NCC(=O)N[C@H](CO)C(=O)N[C@H](Cc1c[nH]c2ccccc12)C(=O)N[C@@H](CO)C(=O)N[C@@H](CCN)C(=O)N[C@H](CCN)C(=O)N[C@@H](Cc1ccccc1)C(=O)N[C@@H](CCC(=O)O)C(=O)N[C@H](C(=O)N[C@@H](C(=O)N[C@@H](C)C(=O)O)[C@@H](C)CC)C(C)C)C(C)C
Enterococcus faecium
  MIC: 100 µg/mL (≈ 65.2 µM)
Listeria monocytogenes
  MIC: 25 µg/mL (≈ 16.3 µM)
Staphylococcus aureus
  MIC: 100 µg/mL (≈ 65.2 µM)
Enterococcus faecalis
  MIC: 100 µg/mL (≈ 65.2 µM)
Acinetobacter baumannii
  MIC: 50 µg/mL (≈ 32.6 µM)
Klebsiella pneumoniae
  MIC: 12.5 µg/mL (≈ 8.14 µM)
Campylobacter jejuni
  MIC: 0.78 µg/mL (≈ 0.508 µM)
Salmonella enterica
  MIC: 6.25 µg/mL (≈ 4.07 µM)
Pseudomonas aeruginosa
  MIC: 100 µg/mL (≈ 65.2 µM)
Escherichia coli
  MIC: 12.5 µg/mL (≈ 8.14 µM)

## CC[C@H](C)CC[C@H](O)CC(=O)N[C@@H](C(=O)N[C@H](CCN)C(=O)NCC(=O)N[C@H](CO)C(=O)N[C@H](Cc1c[nH]c2ccccc12)C(=O)N[C@@H](CO)C(=O)N[C@@H](CCN)C(=O)N[C@H](CCN)C(=O)N[C@@H](Cc1ccccc1)C(=O)N[C@@H](CCC(=O)O)C(=O)N[C@H](C(=O)N[C@@H](C(=O)N[C@@H](C)C(=O)O)[C@@H](C)CC)C(C)C)C(C)C
Enterococcus faecium
  MIC: > 100 µg/mL
Listeria monocytogenes
  MIC: 100 µg/mL (≈ 64.5 µM)
Staphylococcus aureus
  MIC: > 100 µg/mL
Enterococcus faecalis
  MIC: > 100 µg/mL
Acinetobacter baumannii
  MIC: 25 µg/mL (≈ 16.1 µM)
Klebsiella pneumoniae
  MIC: 6.25 µg/mL (≈ 4.03 µM)
Campylobacter jejuni
  MIC: 1.56 µg/mL (≈ 1.01 µM)
Salmonella enterica
  MIC: 6.25 µg/mL (≈ 4.03 µM)
Pseudomonas aeruginosa
  MIC: 50 µg/mL (≈ 32.2 µM)
Escherichia coli
  MIC: 6.25 µg/mL (≈ 4.03 µM)

## CC[C@H](C)[C@@H](NC(=O)[C@@H](NC(=O)[C@H](CCC(=O)O)NC(=O)[C@H](Cc1ccccc1)NC(=O)[C@@H](CCN)NC(=O)[C@H](CCN)NC(=O)[C@H](CO)NC(=O)[C@@H](Cc1c[nH]c2ccccc12)NC(=O)[C@@H](CO)NC(=O)CNC(=O)[C@@H](CCN)NC(=O)[C@H](NC(=O)CCCC[C@@H]1SC[C@@H]2NC(=O)N[C@@H]21)C(C)C)C(C)C)C(=O)N[C@@H](C)C(=O)O
Enterococcus faecium
  MIC: > 100 µg/mL
Listeria monocytogenes
  MIC: > 100 µg/mL
Staphylococcus aureus
  MIC: > 100 µg/mL
Enterococcus faecalis
  MIC: > 100 µg/mL
Acinetobacter baumannii
  MIC: > 100 µg/mL
Klebsiella pneumoniae
  MIC: 50 µg/mL (≈ 30.8 µM)
Campylobacter jejuni
  MIC: 50 µg/mL (≈ 30.8 µM)
Salmonella enterica
  MIC: 50 µg/mL (≈ 30.8 µM)
Pseudomonas aeruginosa
  MIC: > 100 µg/mL
Escherichia coli
  MIC: 50 µg/mL (≈ 30.8 µM)
